From patent publication US7329401B2, “Cyclooxygenase-2 selective agents useful as imaging probes and related methods” (The Regents of the University of California, priority 2002, dated 2008)

Legend:
cyclooxygenase-2 = target: T1, cyclooxygenase-2 (Mus musculus, UniProt Q05769); experiment: Cell-based assay for cyclooxygenase-2 inhibition (PGE2 ELISA, LPS-treated RAW264.7 macrophages); settings: lipopolysaccharide-treated murine RAW264.7 macrophages
T1 sequence (Q05769 18-604): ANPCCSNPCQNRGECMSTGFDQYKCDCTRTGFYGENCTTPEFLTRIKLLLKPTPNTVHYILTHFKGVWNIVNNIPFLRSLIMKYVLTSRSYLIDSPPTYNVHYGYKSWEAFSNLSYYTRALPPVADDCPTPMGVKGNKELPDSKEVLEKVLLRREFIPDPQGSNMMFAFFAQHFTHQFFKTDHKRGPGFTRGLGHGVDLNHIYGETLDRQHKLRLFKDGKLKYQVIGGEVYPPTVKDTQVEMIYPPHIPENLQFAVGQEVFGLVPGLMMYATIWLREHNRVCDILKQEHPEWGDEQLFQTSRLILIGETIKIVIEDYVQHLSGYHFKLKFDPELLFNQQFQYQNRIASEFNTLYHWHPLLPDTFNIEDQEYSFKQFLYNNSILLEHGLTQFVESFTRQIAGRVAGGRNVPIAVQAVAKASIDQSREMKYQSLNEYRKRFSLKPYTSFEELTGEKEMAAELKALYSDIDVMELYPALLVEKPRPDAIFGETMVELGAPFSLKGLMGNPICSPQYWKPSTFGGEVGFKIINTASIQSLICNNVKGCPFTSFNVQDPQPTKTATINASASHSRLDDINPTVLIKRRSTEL
Method: RAW 264.7 cells are a murine macrophage cell line that can be induced to express cyclooxygenase-2 by exposure to bacterial endotoxin/lipopolysaccharide (LPS). For this assay, RAW964.7 cells were plated at 90% confluence in 12-well cell culture plates. After attachment, cells were switched to 1 mL of endotoxin-free Dulbecco's Modified Eagle's Medium with high glucose and 0.5% calf serum overnight. Thirty minutes prior to induction of cyclooxygenase-2 expression, varying concentrations of the test compound (ranging from 20 nM to 0.3 nM) were added. NS-398 (a known cyclooxygenase-2 inhibitor) was used at 10 μM, as a control. Inhibitors or vehicle were added to the cultures by removing the existing culture medium and adding fresh medium containing inhibitor or vehicle. Cells were treated with LPS (final concentration, 10 ng per mL) to induce cyclooxygenase-2 expression. After eight hours, the media were collected from the cultures and frozen on dry ice. Cells were harvested and lysed. Protein determinations were performed to normalize PGE2 values to total protein in each well. PGE2 ELISA assays were performed with a commercial kit (Amersham).
The assay was carried out using lipopolysaccharide-treated murine RAW264.7 macrophages as described previously.

IC50 (cyclooxygenase-2): 1.25 to 2.5 nM | melting point: 192 to 195 °C (dec.)
SMILES: Cc1onc(-c2ccccc2)c1-c1ccc(S(N)(=O)=O)c(F)c1 [compound 4, 2-Fluoro-4-(5-methyl-3-phenylisoxazol-4-yl)benzenesulfonamide]
